The values below come from US20050272677A1, “Delivery of a substance to a pre-determined site” (priority 2002, published 2005).

A short description of series [1]: In vivo delivery of radio-labeled myoglobin with Sunfish/co-lipid complexes.
Method: The low molecular-weight protein myoglobin was chosen as the model protein, the molecular weight is 17.8 kDa and iso-electric point 7.3. To enable quantification of organ uptake of myoglobin, myoglobin was radio-labeled with ^125Iodine-tyramine-cellobiose that is retained within the cell in which it is internalized.
The complexation was performed by mixing 3.5 μg of myoglobin in Tricine buffer (pH 8.5) with 75 nmol liposomes consisting of Sunfish and co-lipid in a molar ratio of 1:1 in 5% glucose solution.
Study 2: For complexation, SF-30, in combination with cholesterol in a molar ratio of 1:1, was used. […]
Study 2: BALB/c mice were injected intravenously with ^125Iodine-tyramine-cellobiose-labeled myoglobin complexed with different PEGylated lipid formulations. The mice were sacrificed after 10, 30 or 120 minutes following injection and the body distribution of ^125Iodine was determined. […]
The organ uptake is expressed as the percentage of injected dose ^125Iodine (tyramine-cellobiose) radioactivity. […] The total percentage of radioactivity in the blood was determined by multiplying the percentage per milliliter blood by 0.073 times the body weight in grams, being the total blood volume of the mouse. To allow an accurate comparison, the ratio between radioactivity in total blood and reticuloendothelial system (RES=liver+spleen) was expressed. […]
In the next series the target is α-chymotrypsin (Bos taurus, UniProt P00766). Nature of the series: Cleavage of prodrug-gelling agent conjugate by α-chymotrypsin in gel and solution. Format: biochemical. How it is done:
The prodrug has been mixed with several gelators (neutral: C3-Am-Meth-Am-CH2CH2OCH2CH2OH as well as ionizable: DBC and C3-Am-Meth-OH) and stabile gels were obtained (0.25 wt % of the prodrug and 0.5 wt % of the gelator). […] This difference could be observed with the naked eye: after 20 minutes, the solution containing the prodrug turned bright yellow (due to the release of nitroaniline, whereas the gel containing the prodrug turned slightly yellow only after 20 hours.

Series [2] is described as follows: Urinary excretion of IOT after subcutaneous injection. Format: in vivo, rat. The note with it: conscious rats. How it is done: DOPC/DOPS (90:10, mol/mol) and DOPC/DOPE liposomes (70:30, mol/mol) liposomes were tested.
Male Wistar rats remained conscious throughout the study. To increase the time-resolution, the diuretic furosemide (10 mg/kg dose s.c) was given in the morning, seven hours before administration of the sample. Urine was collected automatically with a one hour resolution. The concentration of IOT in the urine was measured by HPLC.

For series [3], the target named is T1, MscL (Escherichia coli, UniProt P0A742).
T1 construct: made in house; host or cells: E. coli PB104
The experiment in a line: Release from heparin sulfate loaded liposomes with an applied electric field. The settings on record: liposome with calcein, negative potential. How it is done: In vitro release profiles of a model drug were determined. Liposomes, as in Example 1, with and without MscL-6His, were prepared in the presence of the dye, calcein and heparin sulfate, a natural polymer found in secretory granules. A liposome was inserted into the tip of a glass pipette with the application of suction. The pipette voltage relative to the bath was controlled by a current-to-voltage converter. The solution in both the bath and the pipette was buffered to 6.5 with histamine dichloride and phosphoric acid. An Axopatch 200B was used to apply voltages and to sample the currents at 2.5 ms intervals. Swelling was induced by the application of a negative potential. To measure the swelling, the isolated liposomes were imaged and analyzed as described (J. M. Fernandez, et al., 1991, Biophys. J. 59:1022-1027, and J. R. Monck, et al., 1991; Biophys. J. 59:39-47).

Series [4] in a line: Gelation in the presence of surfactants and polymeric micelles. The class given is physicochemical. On the set-up: key: g = gel; i = insoluble; p = precipitate; sol = soluble.
Assay in series [5]: as above
Format: physicochemical. Set-up: key: G = gel; C = crystalline; G^a: ^a= not stable.

Series [6] concerns the target MscL (Escherichia coli, UniProt P0A742, G22C). The class given is biochemical, E. coli. The note with it: DOPC:DOPS (90:10) liposomes, 1 mM MTSET. Set-up: made in house; host or cells: E. coli PB104. How it is done:
Results Overexpression and Purification of the MscL Channel Protein
Samples were prepared and calcein efflux was monitored as described elsewhere in Example 1.
300 μl of detergent-treated liposomes were gently mixed with 240 μl of 0.25 mg/ml purified MscL-mutant G22C in elution buffer containing 0.2% Triton X-100. The mixture was incubated at 60° C. for 45 minutes, followed by the addition of an equal volume (540 μl) of calcein-loading buffer, containing 200 mM calcein, 25 mM Tris, 1 mM EDTA, pH 8.0. After addition of 20 mg of Triton X-100-absorbing Bio-Beads SM-2, the mixture was gently agitated for one hour at room temperature. Subsequently, 80 mg Bio-Beads were added and incubated at 4° C. overnight under mild agitation. Samples were prepared for calcein efflux assay as described elsewhere.

In series [7] the test system is pB104 strain (MscL null E. coli). The experiment in a line: MTSET shock assay on agar plates with IPTG. Format: cell-based. On the set-up: Growth −MTSET-shock: key to the marks not given beside the values. How it is done: The constructs of the G20C^Ll, V21C^Ll and G22C^Ec MscL-6His mutants were constructed using standard molecular biology techniques. The mutants were tested in pB104 strain (MscL null E. coli) by a MTSET shock assay on agar plates with IPTG (A. F. Batiza, et al., 2002, PNAS, 99:5643-5648).

Another series addresses MscL-mutant G22C (Escherichia coli, UniProt P0A742, G22C). The settings on record: DOPC:DOPS (9:1) liposomes, 1 mM MTSET.

T1 sequence (P0A742 2-136): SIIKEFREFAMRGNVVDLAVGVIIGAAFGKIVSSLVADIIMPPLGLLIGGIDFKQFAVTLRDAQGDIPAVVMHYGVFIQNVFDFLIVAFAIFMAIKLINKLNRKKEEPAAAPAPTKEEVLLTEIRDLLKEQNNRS
Method for MscL-mutant G22C: DOPC:DOPS (9:1 mol/mol) liposomes containing the G22C MscL were prepared as described previously. […] The labeled insulin was encapsulated by three freeze-thaw cycles, followed by extrusion through a 400 nm polycarbonate membrane.
Samples were taken at different time points and triton was added as a control for maximum fluorescence (100%). Samples were filtered over a 450 nm Cellulose Nitrate filter (Schleicher & Schuell BA85). The filtrate of 2 ml was retained and the fluorescence of 200 μl of each filtrate was monitored in a f1600 platereader (Bio-Tek). All experiments were performed in triplo.

For the molecule “1-(polyethyleneglycol5000-ω-methylether)-4-(10′-cis-nonadecenyl)pyridinium Bromide [SF-79]”, the blood/RES ratio entry in series [1] (30 minutes after administration, complex containing 20% SF-79) is reported as “one”. In addition, in series [1] (120 minutes after injection, PEGylated complexes), the “circulation time / radioactivity in the blood” value is “the highest amount of radioactivity in the blood”.

For “CHex(AmEtOEtOH)2(AmPhe-pNA) [compound 16]”, the “time until gel turned slightly yellow (release of nitroaniline)” value on α-chymotrypsin (0.25 wt % prodrug in mixed gel, 0.5 wt % gelator) was 20 h. In addition, the “time until solution turned bright yellow (release of nitroaniline)” value at α-chymotrypsin (prodrug in solution layered with α-chymotrypsin) was found to be 20 min.

Regarding `CNC(=O)c1c(I)c(NC(C)=O)c(I)c(C(=O)O)c1I` [IOT, Iodo-thalamate], the “urinary excretion of IOT after subcutaneous injection” value in series [2] was “completed in the first couple of hours after injection”.

With heparin sulfate, the “swelling on applied voltage” value on MscL [3] was “swelled instantaneously and predictably with the application of a negative voltage”.

As to `O=C(N[C@@H](CSSC[C@H](NC(=O)c1ccccc1)C(=O)O)C(=O)O)c1ccccc1` [DBC, dibenzoyl-L-cystine, reference compound], the Gelation properties entry was “g” in series [4] (Pluronic P 105, 5 mg · ml^−1); “g” in series [4] (Pluronic P 105, 5 mg · ml^−1, * pH reversible gelation); “g” in series [4] (Pluronic P 105, 5 mg · ml^−1, ** pH reversible then thermoreversible gelation); “g” in series [4] (Pluronic P 105, 100 mg · ml^−1, * pH reversible gelation); “g” in series [4] (Pluronic P 105, 100 mg · ml^−1, ** pH reversible then thermoreversible gelation); “G” in series [5] (CTAB < CMC, * pH reversible gelation). Moreover, the Gelation properties entry is given as “G” in [5] (CTAB < CMC, ** pH reversible then thermoreversible gelation); “G” in series [5] (CTAB > CMC, * pH reversible gelation); “G” in series [5] (CTAB > CMC, ** pH reversible then thermoreversible gelation); “G” in series [5] (Lactose der. < CMC, * pH reversible gelation); “G” in series [5] (Lactose der. < CMC, ** pH reversible then thermoreversible gelation); “G” in series [5] (Lactose der. > CMC, * pH reversible gelation). The Gelation properties entry in series [5] (Lactose der. > CMC, ** pH reversible then thermoreversible gelation) is “G”; in series [5] (Nonionic (Lactose der.) < CMC) it was “G”; in series [5] (Nonionic (Lactose der.) > CMC), “G”; in series [5] (Pluronic P 105, 100 mg · ml^−1), “g^a”; in [5] (SDS < CMC, * pH reversible gelation) it was “G”; in series [5] (SDS < CMC, ** pH reversible then thermoreversible gelation) it was “G”. Also, the Gelation properties entry in series [5] (SDS > CMC, * pH reversible gelation) is recorded as “G”; in [5] (SDS > CMC, ** pH reversible then thermoreversible gelation) it was “G”; in series [5] (anionic (SDS) < CMC), “G”; in series [5] (anionic (SDS) > CMC) it was “G”; in series [5] (cationic (CTAB) < CMC) it was “G”; in [5] (cationic (CTAB) > CMC) it was “C”. The “response of gel to reducing agent” value (1 wt % gel, tris-(2-carboxy ethyl)phosphine) was “gel-to-sol transition”. Moreover, the “gelation by pH decrease through D-gluconic acid formation” value (D-glucose, glucose oxidase, catalase, NaHCO3, after three days) was “completely gelified”.

B1: G22C E. coli (protein, UniProt P0A742 1-136, looked up, variant G22C)
Large-conductance …: MSIIKEFREFAMRGNVVDLAVCVIIGAAFGKIVSSLVADIIMPPLGLLIGGIDFKQFAVTLRDAQGDIPAVVMHYGVFIQNVFDFLIVAFAIFMAIKLINKLNRKKEEPAAAPAPTKEEVLLTEIRDLLKEQNNRS
Consider B1, for which, in the series with MscL [6], the encapsulated calcein released is on record as 80% and the “time in which half of the MscL-mediated efflux occurs” value is “seven”. Further, in [7], the “Growth after +MTSET-shock” value was “−” and the “Growth −MTSET-shock” value was “++++”. In the series with MscL-mutant G22C, the FITC insulin efflux result is “release of FITC insulin through MscL-mutant G22C upon activation with 1 mM MTSET”.
